Source: PMC2810227, “3-O-Methylfunicone, a Selective Inhibitor of Mammalian Y-Family DNA Polymerases from an Australian Sea Salt Fungal Strain” (Marine Drugs, 2009)
Where two headings read alike, the source gives them in different places.

Columns and labels:
[1] = system: HeLa (cervix carcinoma cells); assay: Cancer cell growth, MTT assay, HeLa; type: cell-based, human; settings: 24 h
Protocol: Figure 5. (A) Human cancer cell growth inhibition dose-response curves of 3-O-methyl-funicone (1). Various concentrations (0 to 150 μM) of compound 1 were incubated with human colon carcinoma (HCT116) cells (circle) and human cervix carcinoma (HeLa) cells (square) for 24 h. Rate of cell growth was determined by MTT assay as described in the Experimental section. Data are shown as the means ± SEM of five independent experiments. (B) Clonogenic survival of UV-treated HeLa cells by compound 1. Various concentrations (0 to 100 μM) of compound 1 were incubated with 10 J/m^2 UV-treated (closed circle) or untreated (open circle) HeLa cells. After 7 days, the number of colonies in each treatment group was counted. Values are the means ± SEM of two independent experiments.
Human colon carcinoma cell line, HCT116, was a kind gift from Dr. Bert Vogelstein (Johns Hopkins University, Baltimore, […], USA). Human cervix carcinoma cell line, HeLa, was obtained from Health Science Research Resources Bank (Osaka, Japan). The cells were maintained in McCoy’s 5A medium supplemented with 10% FBS, sodium bicarbonate (2 g/L) and streptomycin (100 μg/mL). The cells were cultured at 37 °C in standard medium in a humidified atmosphere of 5% CO2-95% air. […] After incubation for 24 h, the survival rate was determined by MTT (3-(4,5-dimethylthiazol-2-yl)-2,5-diphenyl tetrazolium bromide) assay.

human pol κ = molecular target: T1, human pol κ (Homo sapiens, UniProt Q9UBT6); assay: Kinetic analysis of the inhibition of human pol κ; type: biochemical; settings: for Ki: Dixon plot
T1 construct: A truncated form of pol κ (residues 1–560) with 6 x His-tags attached at the C-terminus; 6xHis (C); made in house; host or cells: E. coli
T1 sequence (Q9UBT6 1-560): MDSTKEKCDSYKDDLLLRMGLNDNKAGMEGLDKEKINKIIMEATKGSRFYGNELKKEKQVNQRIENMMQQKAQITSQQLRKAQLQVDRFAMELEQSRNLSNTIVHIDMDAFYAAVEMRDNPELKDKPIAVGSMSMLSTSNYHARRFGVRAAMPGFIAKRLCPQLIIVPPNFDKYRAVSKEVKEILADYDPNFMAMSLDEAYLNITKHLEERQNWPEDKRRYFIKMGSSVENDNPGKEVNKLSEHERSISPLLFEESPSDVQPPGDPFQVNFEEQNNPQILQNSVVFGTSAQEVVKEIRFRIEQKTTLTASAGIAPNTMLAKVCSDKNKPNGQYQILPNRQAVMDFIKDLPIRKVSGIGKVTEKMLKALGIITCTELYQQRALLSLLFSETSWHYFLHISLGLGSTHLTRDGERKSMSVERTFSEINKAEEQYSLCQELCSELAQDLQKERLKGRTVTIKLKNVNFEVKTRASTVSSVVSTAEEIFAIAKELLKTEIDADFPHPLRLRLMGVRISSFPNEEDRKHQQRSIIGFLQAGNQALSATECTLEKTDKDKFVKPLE
Source text: Next, to elucidate the mechanism of inhibition, the extent of inhibition as a function of DNA template-primer or dNTP substrate concentrations was studied (Figure 4). In kinetic analysis, poly(dA)/oligo(dT)18 and dTTP were used as the DNA template-primer and dNTP substrate, respectively. […] When activated DNA and four dNTP substrates were used as the DNA template-primer and dNTP substrate, respectively, the inhibition of human pol κ by compound 1 was competitive with the DNA template-primer and non-competitive with the dNTP substrate (data not shown).
Figure 4. Kinetic analysis of the inhibition of human pol κ by compound 1. (A) Human pol κ activity was measured in the absence (closed square) or presence of 4 μM (closed circle), 8 μM (closed triangle) or 12 μM (closed diamond) compound 1 using the indicated concentrations of the DNA template-primer. (B) Human pol κ activity was assayed with the indicated concentrations of the substrate dTTP in the presence of 4 μM (open circle), 8 μM (open triangle) or 12 μM (open diamond) or in the absence (open square) of compound 1. […] Amount of human pol κ in the assay mixture was 0.05 units.
The reaction mixtures for pol α, pol β, plant pols and prokaryotic pols were described previously; those for pol γ, and pols δ and ɛ were as described by Umeda et al. and Ogawa et al., respectively. The reaction mixtures for pols η, ι and κ were the same as for pol α, and the reaction mixture for pol λ was the same as for pol β. For pols, poly(dA)/oligo(dT)18 (A/T = 2/1) and dTTP were used as the DNA template-primer and nucleotide (i.e., dNTP) substrate, respectively. For HIV-1 reverse transcriptase, poly(rA)/oligo(dT)18 (A/T = 2/1) and dTTP were used as the DNA template-primer and nucleotide substrate, respectively. For TdT, oligo(dT)18 (3′-OH) and dTTP were used as the DNA primer and nucleotide substrate, respectively.
The compounds were dissolved in distilled dimethyl sulfoxide (DMSO) at various concentrations and sonicated for 30 sec. Aliquots of 4 μl sonicated samples were mixed with 16 μl of each enzyme (final amount 0.05 units) in 50 mM Tris-HCl (pH7.5) containing 1 mM dithiothreitol, 50% glycerol and 0.1 mM EDTA, and kept at 0 °C for 10 min. These inhibitor-enzyme mixtures (8 μl) were added to 16 μl of each of the enzyme standard reaction mixtures (final concentration of 50 mM Tris-HCl [pH 7.5], 1 mM dithiothreitol, 1 mM MgCl2, 15% glycerol, 10 μM poly(dA)/oligo(dT)18 and 10 μM [^3H]-dTTP), and incubation was carried out at 37 °C for 60 min, except for Taq pol, which was incubated at 74 °C for 60 min. Activity without the inhibitor was considered 100%, and the remaining activity at each concentration of the inhibitor was determined relative to this value. One unit of pol activity was defined as the amount of enzyme that catalyzed the incorporation of 1 nmol dNTP (i.e., dTTP) into synthetic DNA template-primers in 60 min at 37 °C under the normal reaction conditions for each enzyme.

SMILES: C/C=C/c1occ(C(=O)c2c(OC)cc(OC)cc2C(=O)OC)c(=O)c1OC [compound 1, 3-O-methylfunicone]
- LD50, cell growth [1]: 63.3 µM
- increase in Michaelis constant (Km), DNA template-primer (human pol κ; 4 μM compound): 295%
- increase in Michaelis constant (Km), DNA template-primer (human pol κ; 8 μM compound): 467%
- increase in Michaelis constant (Km), DNA template-primer (human pol κ; 12 μM compound): 812%
- Vmax for the dNTP substrate (human pol κ; 12 μM compound, decreased from 41.7 without compound): 11.1 pmol/h
- Ki (human pol κ; read-out: inhibition constant (Ki) for the DNA template-primer): 1.3 µM
- Ki (human pol κ; read-out: inhibition constant (Ki) for the dTTP substrate): 4.4 µM
- mode of inhibition with the DNA template-primer (human pol κ; activated DNA as template-primer, data not shown): competitive
- mode of inhibition with the dNTP substrate (human pol κ; dTTP, double reciprocal plots): non-competitive
- mode of inhibition with the dNTP substrate (human pol κ; four dNTP substrates, data not shown): non-competitive
- mode of inhibition with the DNA template-primer (human pol κ; poly(dA)/oligo(dT)18, double reciprocal plots): competitive
- apparent maximum velocity (Vmax), DNA template-primer (human pol κ; unchanged in the presence of 4, 8 and 12 μM compound): 52.6 pmol/h
